# Measurements taken from US4432732A, “Method for predicting properties of a chemical compound” (priority 1982, dated 1984).
# “Also recorded” adds a separate entry of the source. Where a SMILES comes first, the peptide text is derived from it. [ ]: non-standard residue; d: D form. The star is where a group is joined. ξ: configuration not given here. ξS = NC(CO)C(=O)O; OiPr = CC(C)O*
# Key:
# [1] = cited from earlier work; for taste in words: bitter or sweet taste; for sweetness, times sweeter than sucrose: taste of sucrose is 1
# [2] = acute toxicity, LD50 (intravenous dose, small animals); conditions: in vivo, LD50 (mg/kg) divided by molecular weight, multiplied by 100
# Procedure: Conventionally, the degree of toxicity of a compound has been known only after actual dose. LD50 data for small animals (intravenous dose) contained in the Merck Index (9th edition) were thoroughly taken to use as a learning set, which amounts to more than 300 compounds. The predictability of this chart was tested with 82 other compounds.
# Toxicity scale used for this study. Unit of ordinary LD50 values are mg/kg, where mg is the quantity of substance dosed for 50% lethality and kg is the weight of the test animal.
# To standardize this value on the millimore base, the LD50 values is divided by the molecular weight. In FIG. 1, the quantity is further multiplied by 100 to avoid unfamiliarly small digits.
# [3] = tested on: small animals; conditions: intravenous dose; cited from earlier work
SMILES,taste in words [1],also measured
N[C@@H](CC(=O)O)C(=O)N[C@@H](Cc1ccccc1)C(=O)O [(II)] (H-Asp-Phe-OH),bitter taste is observed,–
N[C@@H](CC(=O)O)C(=O)N[C@@H](Cc1ccc(O)cc1)C(=O)O [(III)] (H-Asp-Tyr-OH),bitter taste is observed,–
CNC(=O)[C@H](Cc1ccc(O)cc1)NC(=O)[C@@H](N)CC(=O)O [(IV)] (H-Asp-Tyr-NHMe),bitter taste is observed,–
COC(=O)[C@H](Cc1ccccc1)NC(=O)[C@@H](N)CCC(=O)O [(V)],bitter taste is observed,–
N[C@@H](CCC(=O)O)C(=O)N[C@@H](Cc1ccccc1)C(=O)O [(VI)],bitter taste is observed,–
CC(C)OC(=O)C(CO)NC(=O)[C@@H](N)CC(=O)O (stereo partly shown) [(VII)] (H-Asp-[ξS]-OiPr),sweet peptides,"sweetness, times sweeter than sucrose [1]: ~120 times"
COc1cc(C(=O)OCCCN2CCCN(CCCOC(=O)c3cc(OC)c(OC)c(OC)c3)CC2)cc(OC)c1OC [Compound II],–,LD50 [2]: 328 µmol/kg; observed LD50 [3]: 26.6 mg/kg
CC(=O)Nc1c(I)c(NC(C)=O)c(I)c(C(=O)O)c1I [Compound I],–,LD50 [2]: 22900 µmol/kg; observed LD50 [3]: 14700 mg/kg
"COC(=O)[C@H](Cc1ccccc1)NC(=O)[C@@H](N)CC(=O)O [aspartame, reference compound] (H-Asp-Phe-OMe)",strong sweetness; also recorded: lacking bitter taste,"sweetness, times sweeter than sucrose [1]: about 150 times"
"O=S(=O)(O)NC1CCCCC1 [cyclamic acid, reference compound]",lacking bitter taste,–
"O=C1NS(=O)(=O)c2ccccc21 [saccharine, reference compound]",slight bitterness,–
"OC[C@H]1O[C@@](CO)(O[C@H]2O[C@H](CO)[C@@H](O)[C@H](O)[C@H]2O)[C@@H](O)[C@@H]1O [sucrose, reference compound]",lacking bitter taste,–
